Source: US11179356B2, “Methods and compositions to modulate the gut microbiota and to manage weight” (Xeno Biosciences Inc., priority 2015, dated 2021)

How the values were obtained:
[1] = system: gut microbiota; test: Oral gavage of non-formulated peroxide, 16S rRNA sequencing of fecal samples (Example 7); type: in vivo, Sprague Dawley lean rats; details: rats, oral gavage three times daily in acidified water, total dose 600 mg/kg body weight, 3 days
Procedure: (§1) 6-7 week old Sprague Dawley lean rats were orally gavaged three times daily either with carbamide peroxide dissolved in acidified water as the treatment arm (total dose=600 mg/kg body weight) or with acidified water alone as the control arm (12 […] per arm) for 3 days. Gavage solution was prepared immediately before oral gavaging was performed. Each rat was fed a normal chow diet throughout (Research Diets) and kept under 12 hr-12 hr light-dark cycle in its own metabolic cage. Fresh fecal samples were collected at day 0 (basal measurement, before dosing start) and at the end of day 3 (after the final dose) and immediately stored at −80 C. Later, 16S rRNA sequencing was performed to measure relative abundance of different taxa in the stool samples. Body weight and food intake were measured daily.

[2] = Oral gavage of non-formulated peroxide, body weight and food intake (Example 7); type: in vivo, Sprague Dawley lean rats; details: rats, oral gavage three times daily in acidified water, total dose 600 mg/kg body weight, 3 days
Procedure: as §1

[3] = over one year; cited from earlier work

Row | Structure (SMILES) | change in gut microbiota composition between Day 0 and Day 3, treatment arm and control arm [1] | body weight, treatment versus control arm [2] | food intake, treatment versus control arm [2] | weight loss [3]
1 | NC(N)=O.OO [carbamide peroxide] | No significant change | no significant differences | no significant differences | –
2 | CCCCCCCCCCC[C@@H](C[C@@H]1OC(=O)[C@H]1CCCCCC)OC(=O)[C@H](CC(C)C)NC=O [Xenical] | – | – | – | 3-4%
3 | CC(C)(N)Cc1ccccc1 [Phentermine] | – | – | – | 4-5%
